Here are results for one compound from patent US20130216590A1, “TOPICAL ANTIVIRAL FORMULATIONS FOR PREVENTION OF TRANSMISSION OF HSV-2” (priority 2010, published 2013).

The subject of experiment [1] is HSV-1 and HSV-2. The experiment is described as follows: HSV cytopathic effect (CPE) reduction assay, laboratory strains, HEL cell monolayers and PHKs. The class given is cell-based, herpes simplex virus. The note with it: HEL, read-out: EC50, inhibition of virus-induced cytopathicity. (Cytopathic effects are the visible damage that an infection or toxin causes in cultured cells.)

Experiment [2] deals with HSV-1 wt clinical isolates. Put plainly: HSV CPE reduction assay, clinical isolates in HEL fibroblast cell cultures. The note with it: Human alphaherpesvirus 1, Fibroblast. Format: cell-based.
Experiment [3] concerns HSV-2. Put plainly: Herpes virus infection of primary monocyte/macrophage (M/M) cell cultures. The class given is cell-based. As for the experimental part:
Human peripheral blood mononuclear cells (PBMCs) were obtained from the blood of healthy seronegative donors by Ficoll-Hypaque density gradient centrifugation. […] Monocyte/macrophage (M/M) cells were separated by adherence onto plastic. […] African green monkey fibroblastoid kidney (Vero) cells highly sensitive to the cytopathic effect of HSV-2 were grown in RPMI medium supplemented with 10% heat inactivated FCS and were used in infectious virus titration assays.
Macrophage cultures were then infected with HSV-2 (100 CCID50) in the presence of the test compounds. After 2 hrs virus adsorption, the cultures were extensively washed to remove any residual virus particles. Fresh culture medium and compounds, at the indicated concentrations, were then added to the cultures. […] Appropriate positive (infected but not treated M/M) and mock-infected negative (uninfected and untreated M/M) controls were run for each experiment as well. All assays were performed in triplicate. […] Therefore, the potential inhibitory effect of the compounds on the replication of HSV-2 was evaluated 6 days after infection. The amount of infectious virus in the supernatants was determined by a classical limited dilution assay on Vero cell cultures. The titers of produced virus were calculated according to the Reed and Muench method and expressed as 50% tissue culture infective dose per ml (TCID50/ml).
The inhibition capacity was expressed in % and calculated considering as value 100 being the virus production in virus-infected untreated cultures.

For experiment [4], the system named is HIV-1 (NL4.3). Put plainly: Co-infection of TZM-bl cells with HIV-1 and HSV-2: LTR-driven luciferase. Format: cell-based. As to conditions: presence or absence of an ongoing HSV-2 infection; data not shown. The protocol:
The TZM-bl cell line is derived from HeLa cells and expresses high levels of CD4, CCR5 and CXCR4. In addition, this cell line is stably transduced with a LTR-driven firefly luciferase and E. coli-galactosidase gene (15). In a 96-well tray, 10,000 TZM-bl cells were seeded on day 1. […] Next, 100 μl of a virus suspension containing either HIV-1 (NL4.3), HSV-2 (G) or both viruses together was administered. Two to three days post infection, HIV-1 infection was monitored based on the determination of luciferase activity. For this means, 100 μl of culture supernatant was removed and 100 μl of Bright-Glo Luciferase Assay Substrate (Promega, Madison, USA) was added. The luminescence signal was measured using the Safire 2 microtiter plate reader (Tecan, Männedorf, Switzerland). A control condition containing only mock-infected cells was also included to measure the background luminescence levels. Three days post infection, HSV-2-induced cytopathicity was recorded microscopically based on giant cell formation.

Experiment [5] concerns HSV-2 (G strain). Put plainly: In vivo antiviral activity in HSV-2-infected NMRI athymic nude mice. As for the experimental part: Adult NMRI athymic nude mice (weighing ˜20 g) were scarified on the lumbosacral area over a surface of about 1 cm^2. Mice were inoculated with 5×10^3 PFU of HSV-1 (Kos strain) or 5×10^2 of HSV-2 (G strain) in 50 μL per mouse. […] In each experiment, a group of animals treated with a placebo formulation that was the same as the test formulation without drug was included as a negative control. […] The day of virus inoculation was always considered as day 0. All animal procedures were approved by the K.U. Leuven Animal Care Committee. Development of lesions and mortality were recorded over a one month period. Animals were euthanized when more than 30% loss in body weight or development of paralysis occurred. Survival rates were estimated according to the Kaplan-Meir method and were compared using the log-rank test (Mantel-Cox) test (GraphPad Prism).

In brackets after ≈: the same amount, converted by molar mass. Like-named read-outs stand apart in the source and are kept apart here.

Consider `C[C@H](Cn1cnc2c(N)ncnc21)OCP(=O)(O)O` [tenofovir, (R)-9-(2-phosphonylmethoxypropyl)adenine], for which the EC50 (usually the concentration needed to bring the measured effect to its halfway point) in experiment [1] is 100 to 200 µg/mL (≈ 348 to 696 µM); in experiment [2] (read-out: mean EC50), 130 µg/mL (≈ 453 µM); in experiment [2] (read-out: range of EC50) it was 114 to 160 µg/mL (≈ 397 to 557 µM). The CPE in experiment [3] (1 μg/ml or 0.2 μg/ml, day 6) was 70-80%. For the same compound, the “virus titer in supernatants” value in experiment [3] (1 μg/ml or 0.2 μg/ml, day 6) is 2.5×10^5 TCID50/ml. In addition, the “visible CPE” value in experiment [3] (5 μg/ml, day 6) is 30%; in experiment [3] (20 μg/ml, day 6) it was roughly 5%. Further, in experiment [3] (20 and 5 μg/ml, day 6), the “virus titers in the culture supernatants versus untreated controls” value is recorded as “more than one log lower”. Besides, in experiment [3] (500 and 100 μg/ml, day 6 post virus infection), the virus replication entry is recorded as “completely suppressed virus replication”. Further, in experiment [4], the “suppression of HIV-1” value is listed as “equally suppressed”. For the same compound, in experiment [5] (DMSO formulation, starting the day of infection), the “survival curves and morbidity curves versus the placebo group” value is listed as “statistically significant difference”. Besides, the “appearance of lesions and subsequent death” value in experiment [5] (formulated in the gel at 1%) was “delayed the appearance of herpes virus-related lesions and subsequent death”.
